What was measured:
M1 killer virus = conditions: cited from earlier work
[1] = tested on: programmed −1 ribosomal frameshifting; assay: Programmed −1 ribosomal frameshifting, lacZ reporter plasmids p−1/p0 in yeast; assay type: cell-based, Saccharomyces cerevisiae; conditions: various concentrations, four hours
[2] = tested on: programmed −1 ribosomal frameshifting; conditions: in cells and in in vitro translation extracts (ref. 19); cited from earlier work

For CSC[S@+]([O-])C[C@H](CO)NC(=O)/C=C/c1c(C)[nH]c(=O)[nH]c1=O [sparsomycin], the “loss of the yeast L-A and its satellite dsRNA virus M1” value (M1 killer virus) is given as “promote loss”, the “effect on programmed −1 ribosomal frameshifting” value ([1]; mak8-1 strains) is given as “neither anisomycin nor sparsomycin had any further effect” and the “effect on programmed −1 ribosomal frameshifting” value ([1]; wild-type cells) is given as “altered ribosomal frameshifting”. The “effect on programmed −1 ribosomal frameshifting efficiencies” value [2] was “alter”.
For COc1ccc(C[C@H]2NC[C@H](O)[C@H]2OC(C)=O)cc1 [anisomycin], the “loss of the yeast L-A and its satellite dsRNA virus M1” value (M1 killer virus) is given as “promote loss”, the “effect on programmed −1 ribosomal frameshifting” value ([1]; mak8-1 strains) is given as “neither anisomycin nor sparsomycin had any further effect” and the “effect on programmed −1 ribosomal frameshifting” value ([1]; wild-type cells) is given as “altered ribosomal frameshifting”. For the same compound, the “effect on programmed −1 ribosomal frameshifting efficiencies” value [2] was “alter”.

— patent US7235715B2, “Virus-resistant transgenic plants expressing L3” (priority 1998, dated 2007)
